# Assay results: patent publication US9573930B2 (Quanticel Pharmaceuticals, Inc., priority 2014, dated 2017)
# Molecular target: full-length human LSD1 (Homo sapiens (Human), UniProt O60341)
# Test: In vitro enzyme inhibition assay LSD-1 (TR-FRET)
# Format: biochemical
# Details: H3K4me1-biotin peptide
# Procedure: This assay determines the ability of a test compound to inhibit LSD1 demethylase activity.
# The enzymatic assay of LSD1 activity is based on Time Resolved-Fluorescence Resonance Energy Transfer (TR-FRET) detection.
# The ability of the compounds disclosed herein to inhibit LSD1 activity was quantified and the respective IC50 value was determined.
row,SMILES,IC50 [nM]
1,"COc1ccc(-c2c(-c3ccc(C#N)c(F)c3)nc(N3CC[C@H](N)[C@H](F)C3)n(C)c2=O)cc1 [Example 79, 4-[2-((4S,3R)-4-amino-3-fluoro-piperidin-1-yl)-5-(4-methoxy-phenyl)-1-methyl-6-oxo-1,6-dihydro-pyrimidin-4-yl]-2-fluoro-benzonitrile]",< 100
2,"CN(C)c1ncc(-c2c(-c3ccc(C#N)c(F)c3)nc(N3CCC(N(C)C)CC3)n(C)c2=O)cn1 [Example 81, 4-[2′-dimethylamino-2-(4-dimethylamino-piperidin-1-yl)-1-methyl-6-oxo-1,6-dihydro-[5,5′]bipyrimidinyl-4-yl]-2-fluoro-benzonitrile]",< 100
3,"Cc1ccc(-c2c(-c3ccc(C#N)c(F)c3)nc(N3CCC(N(C)C)CC3)n(C)c2=O)cn1 [Example 82, 4-[2-(4-dimethylamino-piperidin-1-yl)-1-methyl-5-(6-methyl-pyridin-3-yl)-6-oxo-1,6-dihydro-pyrimidin-4-yl]-2-fluoro-benzonitrile]",< 100
4,"CNC1CCN(c2nc(-c3ccc(C#N)c(F)c3)c(-c3ccc(N(C)C)nc3)c(=O)n2C)CC1 [Example 83, 4-[5-(6-dimethylamino-pyridin-3-yl)-1-methyl-2-(4-methylamino-piperidin-1-yl)-6-oxo-1,6-dihydro-pyrimidin-4-yl]-2-fluoro-benzonitrile]",< 100
5,"Cn1c(N2CCC(N)CC2)nc(-c2ccc(C#N)c(F)c2)c(-c2ccc3[nH]ncc3c2)c1=O [Example 88, 4-[2-(4-aminopiperidin-1-yl)-5-(1H-indazol-5-yl)-1-methyl-6-oxopyrimidin-4-yl]-2-fluorobenzonitrile]",< 100
6,"CNc1ccc(-c2c(-c3ccc(C#N)c(F)c3)nc(N3CCC(N)CC3)n(C)c2=O)cc1 [Example 90, 4-[2-(4-aminopiperidin-1-yl)-1-methyl-5-[4-(methylamino)phenyl]-6-oxopyrimidin-4-yl]-2-fluorobenzonitrile]",< 100
7,"CNc1ccc(-c2c(-c3ccc(C#N)c(F)c3)nc(N3CCC(N)CC3)n(C)c2=O)cc1F [Example 91, 4-[2-(4-aminopiperidin-1-yl)-5-[3-fluoro-4-(methylamino)phenyl]-1-methyl-6-oxopyrimidin-4-yl]-2-fluorobenzonitrile]",< 100
8,"COc1ccc(-c2c(-c3ccc(C#N)c(F)c3)nc(N3CCC(N(C)C)CC3)n(C)c2=O)cn1 [Example 92, 4-[2-[4-(dimethylamino)piperidin-1-yl]-5-(6-methoxypyridin-3-yl)-1-methyl-6-oxopyrimidin-4-yl]-2-fluorobenzonitrile]",< 100
9,"CCOc1ncc(-c2c(-c3ccc(C#N)c(F)c3)nc(N3CCC(N)CC3)n(C)c2=O)cc1F [Example 93, 4-[2-(4-aminopiperidin-1-yl)-5-(6-ethoxy-5-fluoropyridin-3-yl)-1-methyl-6-oxopyrimidin-4-yl]-2-fluorobenzonitrile]",< 100
10,"CCOc1ccc(-c2c(-c3ccc(C#N)c(F)c3)nc(N3CCC(N)CC3)n(C)c2=O)cn1 [Example 94, 4-[2-(4-aminopiperidin-1-yl)-5-(6-ethoxypyridin-3-yl)-1-methyl-6-oxopyrimidin-4-yl]-2-fluorobenzonitrile]",< 100
11,"Cn1c(N2CCC(N)CC2)nc(-c2ccc(C#N)cc2)c(-c2ccc(OCCO)cc2)c1=O [Example 97, 4-[2-(4-aminopiperidin-1-yl)-5-[4-(2-hydroxyethoxy)phenyl]-1-methyl-6-oxopyrimidin-4-yl]benzonitrile]",< 100
12,"COCCOc1ccc(-c2c(-c3ccc(C#N)c(F)c3)nc(N3CCC(N)CC3)n(C)c2=O)cc1 [Example 98, 4-[2-(4-aminopiperidin-1-yl)-5-[4-(2-methoxyethoxy)phenyl]-1-methyl-6-oxopyrimidin-4-yl]-2-fluorobenzonitrile]",< 100
13,"Cn1c(N2CCC(N)CC2)nc(-c2ccc(C#N)c(F)c2)c(-c2ccc(F)cc2)c1=O [Example 101, 4-[2-(4-aminopiperidin-1-yl)-5-(4-fluorophenyl)-1-methyl-6-oxopyrimidin-4-yl]-2-fluorobenzonitrile]",< 100
14,"Cn1c(N2CCC(N)CC2)nc(-c2ccc(C#N)c(F)c2)c(-c2ccc(F)c(F)c2)c1=O [Example 104, 4-[2-(4-aminopiperidin-1-yl)-5-(3,4-difluorophenyl)-1-methyl-6-oxopyrimidin-4-yl]-2-fluorobenzonitrile]",< 100

# Further lines, results first:
row,IC50 [nM],SMILES
1,< 100,"COc1ccc(-c2c(-c3ccc(C#N)c(F)c3)nc(N3CC[C@@H](N)[C@@H](F)C3)n(C)c2=O)cc1 [Example 78, 4-[2-((4R,3S)-4-amino-3-fluoro-piperidin-1-yl)-5-(4-methoxy-phenyl)-1-methyl-6-oxo-1,6-dihydro-pyrimidin-4-yl]-2-fluoro-benzonitrile]"
2,< 100,"CN(C)C1CCN(c2nc(-c3ccc(C#N)c(F)c3)c(-c3ccc4cn(C)nc4c3)c(=O)n2C)CC1 [Example 80, 4-[2-(4-dimethylamino-piperidin-1-yl)-1-methyl-5-(2-methyl-2H-indazol-6-yl)-6-oxo-1,6-dihydro-pyrimidin-4-yl]-2-fluoro-benzonitrile]"
3,< 100,"CN(C)C1CCN(c2nc(-c3ccc(C#N)c(F)c3)c(-c3ccc4cn[nH]c4c3)c(=O)n2C)CC1 [Example 84, 4-[2-(4-dimethylamino-piperidin-1-yl)-5-(2H-indazol-6-yl)-1-methyl-6-oxo-1,6-dihydro-pyrimidin-4-yl]-2-fluoro-benzonitrile]"
4,< 100,"CNC1CCN(c2nc(-c3ccc(C#N)c(F)c3)c(-c3ccc4c(cnn4C)c3)c(=O)n2C)CC1 [Example 87, 2-fluoro-4-[1-methyl-2-[4-(methylamino)piperidin-1-yl]-5-(1-methylindazol-5-yl)-6-oxopyrimidin-4-yl]benzonitrile]"
5,< 100,"Cn1c(N2CCC(N)CC2)nc(-c2ccc(C#N)c(F)c2)c(-c2ccc(N)cc2)c1=O [Example 89, 4-[5-(4-aminophenyl)-2-(4-aminopiperidin-1-yl)-1-methyl-6-oxopyrimidin-4-yl]-2-fluorobenzonitrile]"
6,< 100,"CCOc1ccc(-c2c(-c3ccc(C#N)c(F)c3)nc(N3CCC(N)CC3)n(C)c2=O)cc1 [Example 95, 4-[2-(4-aminopiperidin-1-yl)-5-(4-ethoxyphenyl)-1-methyl-6-oxopyrimidin-4-yl]-2-fluorobenzonitrile]"
7,< 100,"Cn1c(N2CCC(N)CC2)nc(-c2ccc(C#N)c(F)c2)c(-c2ccc(CCO)cc2)c1=O [Example 99, 4-[2-(4-aminopiperidin-1-yl)-5-[4-(2-hydroxyethyl)phenyl]-1-methyl-6-oxopyrimidin-4-yl]-2-fluorobenzonitrile]"
8,< 100,"Cn1c(N2CCC(N)CC2)nc(-c2ccc(C#N)c(F)c2)c(-c2ccc(CO)cc2)c1=O [Example 100, 4-[2-(4-aminopiperidin-1-yl)-5-[4-(hydroxymethyl)phenyl]-1-methyl-6-oxopyrimidin-4-yl]-2-fluorobenzonitrile]"
9,< 100,"Cn1c(N2CCC(N)CC2)nc(-c2ccc(C#N)c(F)c2)c(-c2cccc(F)c2)c1=O [Example 102, 4-[2-(4-aminopiperidin-1-yl)-5-(3-fluorophenyl)-1-methyl-6-oxopyrimidin-4-yl]-2-fluorobenzonitrile]"
10,< 100,"Cn1c(N2CCC(N)CC2)nc(-c2ccc(C#N)c(F)c2)c(-c2cc(F)cc(F)c2)c1=O [Example 103, 4-[2-(4-aminopiperidin-1-yl)-5-(3,5-difluorophenyl)-1-methyl-6-oxopyrimidin-4-yl]-2-fluorobenzonitrile]"
